Measured values taken from ChEMBL document CHEMBL4118174, “The discovery of VU0486846: steep SAR from a series of M1 PAMs based on a novel benzomorpholine core” (Bioorg Med Chem Lett, 2018).
Numbering of substitutions follows the chain as printed.

What was measured:
[1] = target: T1, Muscarinic acetylcholine receptor M1 (Homo sapiens, UniProt P11229); experiment: Positive allosteric modulation of human muscarinic acetylcholine M1 receptor expressed in CHO cells assessed as potentiation of acetylcholine-induced calcium mobilization; format: functional, cell-based
T1 sequence (P11229 whole entry): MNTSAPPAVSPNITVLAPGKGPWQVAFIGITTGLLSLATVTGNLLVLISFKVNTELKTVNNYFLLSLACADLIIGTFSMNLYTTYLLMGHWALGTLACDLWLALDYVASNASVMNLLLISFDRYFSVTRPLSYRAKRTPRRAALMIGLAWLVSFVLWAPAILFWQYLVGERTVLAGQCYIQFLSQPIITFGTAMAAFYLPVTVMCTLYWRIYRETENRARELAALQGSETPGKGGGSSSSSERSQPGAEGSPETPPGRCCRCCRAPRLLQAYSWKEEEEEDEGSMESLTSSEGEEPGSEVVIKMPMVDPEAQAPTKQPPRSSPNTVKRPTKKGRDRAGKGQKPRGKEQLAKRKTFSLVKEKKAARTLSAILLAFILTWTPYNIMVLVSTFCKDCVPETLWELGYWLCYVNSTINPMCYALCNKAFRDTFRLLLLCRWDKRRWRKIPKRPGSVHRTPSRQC

[2] = target: T2, Muscarinic acetylcholine receptor M1 (Homo sapiens) (UniProt P11229); experiment: Positive allosteric modulation of human muscarinic acetylcholine M1 receptor expressed in CHO cells assessed as potentiation of acetylcholine-induced calcium mobilization relative to acetylcholine; format: functional, cell-based
T2 sequence (whole entry): T1 sequence (P11229 whole entry)

[3] = Brain to plasma permeability coefficient, Kp of compound in Sprague-Dawley rat at 0.20 to 0.25 mg/kg administered as iv cassette dose measured at 0.25 hrs post dose; format: ADME, organism-based; conditions: for Kp at 0.25 h: Sprague-Dawley, brain and plasma; for Kp: brain, 0.25 h
[4] = target: T1, Muscarinic acetylcholine receptor M1; experiment: Positive allosteric modulation of human muscarinic acetylcholine M1 receptor; format: functional
[5] = target: T3, Muscarinic acetylcholine receptor M1 (Rattus norvegicus, UniProt P08482); experiment: Positive allosteric modulation of rat muscarinic acetylcholine M1 receptor; format: functional
T3 sequence (P08482 whole entry): T1 sequence (P11229 whole entry) with A5V, T254S, P309S, R320K, A337G, I413V

Rattus norvegicus = experiment: Cognitive enhancing effect in po dosed rat by novel object recognition test; format: functional; conditions: read-out: MED
[6] = Fraction unbound in plasma (unknown origin); format: ADME, cell-free
[7] = Fraction unbound in rat plasma; format: ADME, cell-free
[8] = Fraction unbound in human plasma; format: ADME, cell-free
[9] = target: T1, Muscarinic acetylcholine receptor M1; experiment: Positive allosteric modulation of human muscarinic acetylcholine M1 receptor expressed in CHO-NFAT cells assessed as potentiation of acetylcholine-induced calcium mobilization after 4 hrs by CCF4-AM dye-based assay; format: functional, cell-based
[10] = Brain to plasma permeability coefficient, Kp of compound in mouse; format: ADME

Structure (SMILES)	EC50 ([1]; read-out: EC50) [nM]	%max [2] [%]	further results
O=C(N[C@H]1CCOC[C@@H]1O)C1CN(Cc2ccc(-n3cccn3)cc2)c2ccccc2O1 (some centres not stated)	190	91	Kp at 0.25 h [3]: 0.08
COc1cccnc1NC(=O)C1CN(Cc2ccc(-n3cccn3)cc2)c2ccccc2O1 (configuration not stated)	1700	80	EC50 ([1]; read-out: pEC50 (converted)): 1620 nM
O=C(N[C@H]1CCCC[C@@H]1O)C1CN(Cc2ccc(C3CC3)nc2)c2ccccc2O1 (some centres not stated)	2500	90	EC50 ([1]; read-out: pEC50 (converted)): 2240 nM
O=C(N[C@H]1CCCC[C@@H]1O)C1CN(Cc2ccc(-n3ccnc3)nc2)c2ccccc2O1 (some centres not stated)	290	87	
O=C(N[C@H]1CCC[C@@H]1O)C1CN(Cc2ccc(-n3cccn3)cc2)c2ccccc2O1 (some centres not stated)	1200	77	Kp at 0.25 h [3]: 0.09
O=C(N[C@H]1CCCC[C@@H]1O)[C@H]1CN(Cc2ccc(-n3cccn3)cc2)c2ccccc2O1			EC50 [4]: 250 nM; EC50 [5]: 250 nM; minimal effective dose (Rattus norvegicus): 3 mg/kg
O=C(N[C@H]1CCCC[C@@H]1O)C1CN(Cc2ccc(Cl)nc2)c2ccccc2O1 (some centres not stated)	7600	73	EC50 ([1]; read-out: pEC50 (converted)): 7080 nM
O=C(N[C@H]1CCCC[C@@H]1O)C1CN(Cc2ccc(-n3cccc3)cc2)c2ccccc2O1 (mixture of isomers)	2100	81	Fu [6]: < 0.001
O=C(Nc1ncccc1F)C1CN(Cc2ccc(-n3cccn3)cc2)c2ccccc2O1 (configuration not stated)	2300	81	
O=C(NCC(O)C(F)(F)F)C1CN(Cc2ccc(-n3cccn3)cc2)c2ccccc2O1 (configuration not stated)	2200	78	
O=C(N[C@H]1CCCCC1=O)C1CN(Cc2ccc(-n3cccn3)cc2)c2ccccc2O1 (some centres not stated)	2700	78	
NC1CCCCC1NC(=O)C1CN(Cc2ccc(-n3cccn3)cc2)c2ccccc2O1 (configuration not stated)	2300	62	
O=C(N[C@H]1CCCC[C@@H]1O)C1CN(Cc2ccc(-n3cccn3)cc2)c2cc(F)ccc2O1 (some centres not stated)	320	88	EC50 ([1]; read-out: pEC50 (converted)): 309 nM; Kp [3]: 0.3 to 0.4; fraction unbound [7]: < 0.01; fraction unbound [8]: < 0.01
Cn1cc(-c2ccc(CN3CC(C(=O)N[C@H]4CCCC[C@@H]4O)Oc4ccccc43)cn2)cn1 (some centres not stated)	220	84	
O=C(N[C@H]1CCCC[C@@H]1O)C1CN(Cc2ccc(C(F)(F)F)nc2)c2ccccc2O1 (some centres not stated)	3700	84	
Cc1ccn(-c2ccc(CN3CC(C(=O)N[C@H]4CCCC[C@@H]4O)Oc4ccccc43)cn2)n1 (some centres not stated)	670	91	
C=Cc1ccc(CN2CC(C(=O)N[C@H]3CCCC[C@@H]3O)Oc3ccccc32)cn1 (some centres not stated)	700	89	
CC(O)(CNC(=O)C1CN(Cc2ccc(-n3cccn3)cc2)c2ccccc2O1)C1CC1 (configuration not stated)	1900	80	
O=C(N[C@H]1CCCC[C@@H]1O)C1CN(Cc2ccc(Br)nc2)c2ccccc2O1 (some centres not stated)	1200	91	EC50 ([1]; read-out: pEC50 (converted)): 1070 nM

Structure (SMILES)	EC50 ([1]; read-out: EC50) [nM]	%max [2] [%]	further results
O=C(N[C@H]1CCCC[C@@H]1O)C1Cc2ccccc2N(Cc2ccc(-n3cccn3)cc2)C1 (mixture of isomers)	1400	75	
O=C(N[C@H]1CCCC[C@@H]1O)C1CN(Cc2ccc(-n3cccn3)cc2)c2cc(Cl)ccc2O1 (mixture of isomers)	2800	86	Fu [6]: < 0.001
O=C(NC1CCCCC1)C1CN(Cc2ccc(-n3cccn3)cc2)c2ccccc2O1 (configuration not stated)	> 10000	35	Kp at 0.25 h [3]: 1.1
Cc1ccc(Cc2cc3c(=O)n([C@H]4CCCC[C@@H]4O)cnc3c3ccccc23)cn1 [MK-7622]			EC50 [9]: < 100 nM
CC1(C(=O)N[C@H]2CCCC[C@@H]2O)CN(Cc2ccc(-n3cccn3)cc2)c2ccccc2O1 (mixture of isomers)	7300	61	
O=C(N[C@H]1CCCC[C@@H]1O)C1CN(Cc2ccc(-n3cccn3)cc2)c2c(F)cccc2O1 (some centres not stated)	3180 to 3200	76	EC50 ([1]; read-out: pEC50 (converted)): 3090 nM; Kp [3]: 0.3 to 0.4; fraction unbound [7]: < 0.01; fraction unbound [8]: < 0.01
O=C(Nc1ncccc1O)C1CN(Cc2ccc(-n3cccn3)cc2)c2ccccc2O1 (configuration not stated)	710	75	EC50 ([1]; read-out: pEC50 (converted)): 692 nM; Kp at 0.25 h [3]: 0.11
O=C(N[C@H]1CCCC[C@@H]1O)C1CN(Cc2ccc(-n3cccn3)nc2)c2ccccc2O1 (mixture of isomers)	780	92	EC50 ([1]; read-out: pEC50 (converted)): 708 nM; Fu [6]: < 0.001
O=C(N[C@H]1CCCC[C@@H]1O)C1CN(Cc2ccc(-n3cccn3)cc2F)c2ccccc2O1 (mixture of isomers)	1600	88	Fu [6]: < 0.001
CN(C)c1ccc(CN2CC(C(=O)N[C@H]3CCCC[C@@H]3O)Oc3ccccc32)cn1 (some centres not stated)	3800	89	
O=C(N[C@H]1CCCC[C@@H]1O)C1CN(Cc2ccc(-n3cccn3)cc2)c2ccccc2O1 (mixture of isomers)	920	77	Kp [3]: 0.17; Kp [10]: 0.7; Fu [7]: > 0.11; fraction unbound [8]: ≥ 0.11
O=C(N[C@H]1CCCC[C@@H]1O)C1CN(Cc2ccc(-n3cccc3)nc2)c2ccccc2O1 (some centres not stated)	500	94	
O=C(N[C@H]1CCCC[C@@H]1O)C1CN(Cc2ccc(-n3cccn3)cc2)c2cccc(F)c2O1 (some centres not stated)	140	89	Kp [3]: 0.3 to 0.4
Cc1ccc(CN2CC(C(=O)N[C@H]3CCCC[C@@H]3O)Oc3ccccc32)cn1 (some centres not stated)	850	85	EC50 ([1]; read-out: pEC50 (converted)): 813 nM
O=C(NC1CCOCC1)C1CN(Cc2ccc(-n3cccn3)cc2)c2ccccc2O1 (configuration not stated)	6600	69	Kp at 0.25 h [3]: 1
O=C(N[C@H]1CCCC[C@@H]1O)C1CN(Cc2ccc(-n3cccn3)cc2)c2ccc(F)cc2O1 (some centres not stated)	2200	80	Kp [3]: 0.3 to 0.4; fraction unbound [7]: < 0.01; fraction unbound [8]: < 0.01
Cn1nccc1-c1ccc(CN2CC(C(=O)N[C@H]3CCCC[C@@H]3O)Oc3ccccc32)cn1 (some centres not stated)	1300	94	
CC(C)(O)CNC(=O)C1CN(Cc2ccc(-n3cccn3)cc2)c2ccccc2O1 (configuration not stated)	6400	60	EC50 ([1]; read-out: pEC50 (converted)): 5890 nM
